Measured values taken from US20250333394A1, “Tiparp Inhibitor Compounds” (AbbVie Inc., priority 2024, published 2025).
Read-outs that look alike come from different tables or passages of the source.

Key:
DLD-1 parent cells = test: CellTiter-Glo DLD-1 parent cell assay; assay type: cell-based; details: 6 days, read-out: DLD-1 CTG EC50
Description: (§1) The DLD-1 BRCA2 (−/−) CellTiter-Glo® assay measured the synthetic lethality of PARP1/2 inhibitors and was used as a surrogate to allow measurement of activity of both PARP1 and PARP2 in cells. If PARP1 and PARP2 are inhibited and are trapped onto chromatin during DNA replication, there is replication fork stalling and accumulation of double strand breaks. In BR CA wild-type cells, the resulting double strand DNA breaks are repaired via homologous recombination. In cells with mutation of BRCA1 or BRCA2, homologous recombination repair of DNA double strand breaks is defective, and cell death occurs after PARP1/2 inhibitor treatment (Lord C J, Ashworth A. PARP inhibitors: synthetic lethality in the clinic. Science. 2017 Mar. 17; 355(6330):1152-1158). Testing compounds in viability assays with the DLD-1-BR CA 2 (−/−) and DLD-1 parent cell enabled assessment on PARP1/2-dependent (cytotoxicity in the BRCA2 (−/−) cells only) vs. non-selective cytotoxicity in both cell lines.
(§2) Compound stock solutions (10 mM) were serially diluted in 3-fold increments in dimethyl sulfoxide (DMSO). Sample aliquots (120 nL) were dispensed into Corning® 384-well Flat Clear Bottom White Polystyrene TC-treated Microplates (Corning Life Sciences, Corning, NY, USA) using an ECHO® 550 acoustic Labcyte dispenser (Beckman-Coulter Life Sciences, Indianapolis, IN, USA) to achieve concentrations between 30 μM and 0.5 nM in the assay. In the assay, 40 μL of 500 DLD-1 parent cells (HORIZON® Therapeutics, Deerfield, IL, USA) or 40 μL of 1200 DLD-1-BRCA2 (−/−) cells (HORIZON Therapeutics) in complete growth medium containing RPMI 1640 growth medium (ThermoFisher Scientific, Waltham, MA, USA) supplemented with 20 mg/L L-glutamate, 25 mM HEPES (4-(2-hydroxyethyl)-1-piperazineethanesulfonic acid), 10% (v/v) heat inactivated FBS (fetal bovine serum), and 1% (w/v) Penicillin-Streptomycin were added.
(§3) Duplicate cell plates with 40 μL cells/well along with various concentrations of compounds were kept in Nunc™ Square BioAssay Dishes (Thermo Fisher Scientific) at 98% relative humidity in a 5% CO2 incubator at 37° C. for 6 days. On day 7, plates were moved to ambient lab conditions for 10 minutes until the temperature equilibrated. Following equilibration, CellTiter-Glo® Luminescent Cell Viability Assay reagent (Promega™, Madison, WI, USA) was added (15 μL) to each well of the plates. After a 20 minutes incubation, luminescence was detected using a ViewLux™ microplate imager (PerkinElmer, Waltham, MA, USA). Data analysis was performed using GraphPad Prism (Dotmatics, Boston, MA, USA).

NCI-H1373 cells = test: NCI-H1373 CellTiter-Glo cell assay for TIPARP inhibition; assay type: cell-based, human; details: 6 days, 100 nM 10-Cl-BBQ in medium, read-out: NCI-H1373 CTG EC50
Experimental: The NCI-H1373 CellTiter-Glo® assay was used to determine cell numbers after TIPARP inhibition-induced cell cycle arrest, and enabled screening of compounds for cellular TIPARP inhibition potency.
Compound stock solutions (10 mM) were serially diluted in 3-fold increments in dimethyl sulfoxide. Sample aliquots (120 nL) were dispensed into Corning® 384-well Flat Clear Bottom White Polystyrene TC-treated Microplates (Corning Life Sciences, Corning, NY, USA) using an ECHO® 550 acoustic Labcyte dispenser (Beckman-Coulter Life Sciences, Indianapolis, IN, USA) to achieve final concentrations between 30 μM and 0.5 nM in the assay. This was followed by the addition of 40 μL of 1000 NCI-H1373 cells (ATCC®, Manassas, VA, USA) in complete growth medium RPMI 1640 growth medium (Thermo Fisher Scientific, Waltham, MA, USA) supplemented with 20 mg/L L-glutamate, 25 mM HEPES (4-(2-hydroxyethyl)-1-piperazineethanesulfonic acid), 10% (v/v) heat inactivated FBS (fetal bovine serum), 1% (w/v) penicillin-streptomycin, and 100 nM 10-Cl-BBQ (10-chloro-7H-benzimidazo[2,1-a]benz[de]isoquinolin-7-one, (Tocris, Minneapolis, MN, USA). Duplicate cell plates with 40 μL cells/well along with various concentrations of compounds were kept in Nunc™ Square BioAssay Dishes (Thermo Fisher Scientific) at 98% relative humidity in a 5% C02 incubator at 37° C. for 6 days. On day 7, plates were moved to ambient lab conditions for 10 minutes until the temperature equilibrated. Following equilibration, CellTiter-Glo® Luminescent Cell Viability Assay reagent (Promega™, Madison, WI, USA) was added (15 μL) to each well of the plates. After a 20 minutes incubation, luminescence was detected using a ViewLux™ microplate imager (PerkinElmer, Waltham, MA, USA). Data analysis was performed using GraphPad Prism (Dotmatics, Boston, MA, USA).

TIPARP GST-(TEV) = TIPARP GST-(TEV) (Homo sapiens (Human), UniProt Q7Z3E1); test: TR-FRET binding assay, TIPARP; details: for IC50: TR-FRET, Probe 1, 2 hours incubation; for PARP1/TIPARP IC50 Ratio: ratio of PARP1 GST IC50 to TIPARP GST-(TEV) IC50
Sequence of TIPARP GST-(TEV) (Q7Z3E1 441-657): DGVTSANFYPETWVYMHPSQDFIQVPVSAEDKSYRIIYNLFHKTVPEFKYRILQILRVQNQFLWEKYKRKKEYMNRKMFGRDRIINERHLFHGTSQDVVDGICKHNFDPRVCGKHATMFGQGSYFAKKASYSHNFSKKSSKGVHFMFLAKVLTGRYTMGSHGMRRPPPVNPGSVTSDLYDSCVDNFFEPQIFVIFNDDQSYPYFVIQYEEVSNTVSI
Description: The full-length cDNA encoding the human TIPARP (NP_001171647.1, UniProtKB-Q7Z3E1) of 657 amino acids was the template to generate the expression construct. […] The TIPARP fusion protein includes GST, glutathione S-transferase, a 26 kDa protein whose DNA sequence is frequently integrated into expression vectors for production of recombinant proteins. A […], was cloned into vector pFastBacTM 1 (Thermo Fisher Scientific) with an N-terminal GST tag followed by a TEV protease site to produce the TIPARP fusion protein, TIPARP GST-(TEV). TR-FRET assays were used to measure the binding of compounds to TIPARP and PARP1, and to characterize biochemical selectivity. Compound stock solutions (10 mM) were serially diluted in 3-fold increments in dimethyl sulfoxide (DMSO). Diluted compounds were dispensed (30 nL) into white ProxiPlate-384-well plates (PerkinElmer, Waltham, MA, USA) using an ECHO® 550 acoustic Labcyte dispenser (Beckman-Coulter Life Sciences, Indianapolis, IN, USA) to achieve a final starting concentration of 30 μM to 0.5 nM in the assay. This was followed by addition of 5 μL of 2× protein/probe mix (Table 2) made in assay buffer (Tris-HCl 50 mM pH 8.0; 5 mM MgCl2; 5 μM ZnCl2; 1 mM DTT (dithiothreitol); 0.15% BSA (bovine serum albumin) (w/v); and 0.01% TritonX-100 (w/v)) at final concentrations listed in Table 2. Subsequently, 5 μL of 2× antibody (Tb-labeled anti-GST antibody, Thermo Fisher Scientific, Waltham, MA, USA) in HEPES buffered saline was added to each well at a final concentration of 1 nM. The samples were then incubated for 2 hours under ambient conditions. Fluorescence was measured and TR-FR ET ratios were determined on an EnVision multimode plate reader (PerkinElmer) using a 520 nanometer (nm) excitation wavelength and collecting fluorescence emission at 495 nm. […] [table]

PARP1 GST = PARP1 GST (Homo sapiens (Human), UniProt P09874); test: TR-FRET binding assay, PARP1; details: Probe 2, 2 hours incubation
Sequence of PARP1 GST (P09874 whole entry): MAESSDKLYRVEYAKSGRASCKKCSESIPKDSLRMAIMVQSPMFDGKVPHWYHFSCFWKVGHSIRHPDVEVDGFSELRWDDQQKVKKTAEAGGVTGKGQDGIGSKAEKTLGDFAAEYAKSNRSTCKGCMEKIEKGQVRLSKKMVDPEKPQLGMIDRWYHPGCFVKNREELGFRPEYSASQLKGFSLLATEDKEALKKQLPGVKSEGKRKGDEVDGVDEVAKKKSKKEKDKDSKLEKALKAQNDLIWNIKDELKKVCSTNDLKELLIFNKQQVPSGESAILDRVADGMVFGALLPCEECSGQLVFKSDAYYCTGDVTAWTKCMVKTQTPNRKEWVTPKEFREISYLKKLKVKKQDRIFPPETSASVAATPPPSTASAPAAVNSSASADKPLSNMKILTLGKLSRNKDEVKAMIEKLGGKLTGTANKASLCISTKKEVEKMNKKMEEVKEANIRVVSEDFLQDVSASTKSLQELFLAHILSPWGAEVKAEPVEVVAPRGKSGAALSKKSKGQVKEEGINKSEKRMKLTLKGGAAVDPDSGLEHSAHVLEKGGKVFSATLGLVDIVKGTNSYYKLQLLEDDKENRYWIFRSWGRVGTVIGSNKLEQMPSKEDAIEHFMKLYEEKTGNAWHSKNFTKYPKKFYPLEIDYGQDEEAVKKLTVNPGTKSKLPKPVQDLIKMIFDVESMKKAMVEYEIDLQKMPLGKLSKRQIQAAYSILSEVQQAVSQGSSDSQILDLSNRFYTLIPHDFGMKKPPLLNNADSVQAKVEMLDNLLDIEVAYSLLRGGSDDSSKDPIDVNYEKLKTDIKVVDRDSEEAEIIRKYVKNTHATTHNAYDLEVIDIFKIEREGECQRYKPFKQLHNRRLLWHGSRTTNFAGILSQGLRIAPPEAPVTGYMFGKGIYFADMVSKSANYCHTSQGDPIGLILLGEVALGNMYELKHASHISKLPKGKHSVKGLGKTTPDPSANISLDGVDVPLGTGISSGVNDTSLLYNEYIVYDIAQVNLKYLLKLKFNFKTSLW
Experimental: TR-FRET assays were used to measure the binding of compounds to TIPARP and PARP1, and to characterize biochemical selectivity. Compound stock solutions (10 mM) were serially diluted in 3-fold increments in dimethyl sulfoxide (DMSO). Diluted compounds were dispensed (30 nL) into white ProxiPlate-384-well plates (PerkinElmer, Waltham, MA, USA) using an ECHO® 550 acoustic Labcyte dispenser (Beckman-Coulter Life Sciences, Indianapolis, IN, USA) to achieve a final starting concentration of 30 μM to 0.5 nM in the assay. This was followed by addition of 5 μL of 2× protein/probe mix (Table 2) made in assay buffer (Tris-HCl 50 mM pH 8.0; 5 mM MgCl2; 5 μM ZnCl2; 1 mM DTT (dithiothreitol); 0.15% BSA (bovine serum albumin) (w/v); and 0.01% TritonX-100 (w/v)) at final concentrations listed in Table 2. Subsequently, 5 μL of 2× antibody (Tb-labeled anti-GST antibody, Thermo Fisher Scientific, Waltham, MA, USA) in HEPES buffered saline was added to each well at a final concentration of 1 nM. The samples were then incubated for 2 hours under ambient conditions. Fluorescence was measured and TR-FR ET ratios were determined on an EnVision multimode plate reader (PerkinElmer) using a 520 nanometer (nm) excitation wavelength and collecting fluorescence emission at 495 nm.

DLD-1 BRCA2 (−/−) cells = test: CellTiter-Glo DLD-1 BRCA2 (−/−) cell assay for PARP1/2 inhibition; assay type: cell-based; details: 6 days, read-out: DLD-1 BRCA2 (−/−) CTG EC50
Description: as §1, §2, §3

SMILES: C[C@@H]1CN(C(=O)[C@H]2C[C@@H](Cc3c[nH]c(=O)c(C(F)(F)F)c3)C2)CCN1c1ncc(C(C)(C)O)cn1 [Example 18, 5-{[(1S,3s)-3-{(3R)-4-[5-(2-hydroxypropan-2-yl)pyrimidin-2-yl]-3-methylpiperazine-1-carbonyl}cyclobutyl]methyl}-3-(trifluoromethyl)pyridin-2(1H)-one]
- EC50 (DLD-1 parent cells; Homo sapiens, 144 h): 12000 nM
- EC50 (NCI-H1373 cells; Homo sapiens, NCI-H1373, 144 h): 66.7 nM
- IC50 (TIPARP GST-(TEV)): 5.86 nM
- PARP1/TIPARP IC50 Ratio (TIPARP GST-(TEV)): 149
- IC50 (PARP1 GST): 871 nM
- EC50 (DLD-1 BRCA2 (−/−) cells; Homo sapiens, 144 h): 1050 nM

SMILES: C[C@@H]1CN(c2ncc(C(C)(C)O)cn2)CCN1C(=O)[C@H]1C[C@@H](Cc2c[nH]c(=O)c(C(F)(F)F)c2)C1 [Example 19, 5-{[(1S,3s)-3-{(2R)-4-[5-(2-hydroxypropan-2-yl)pyrimidin-2-yl]-2-methylpiperazine-1-carbonyl}cyclobutyl]methyl}-3-(trifluoromethyl)pyridin-2(1H)-one]
- EC50 (DLD-1 parent cells; Homo sapiens, 144 h): > 30000 nM
- EC50 (NCI-H1373 cells; Homo sapiens, NCI-H1373, 144 h): 71.2 nM
- IC50 (TIPARP GST-(TEV)): 5.79 nM
- PARP1/TIPARP IC50 Ratio (TIPARP GST-(TEV)): 1170
- IC50 (PARP1 GST): 6750 nM
- EC50 (DLD-1 BRCA2 (−/−) cells; Homo sapiens, 144 h): 18300 nM

SMILES: C[C@H]1CN(C(=O)[C@H]2C[C@@H](Cc3c[nH]c(=O)c(C(F)(F)F)c3)C2)CCN1c1ncc(C(C)(C)O)cn1 [Example 20, 5-{[(1R,3s)-3-{(3S)-4-[5-(2-hydroxypropan-2-yl)pyrimidin-2-yl]-3-methylpiperazine-1-carbonyl}cyclobutyl]methyl}-3-(trifluoromethyl)pyridin-2(1H)-one]
- EC50 (DLD-1 parent cells; Homo sapiens, 144 h): > 30000 nM
- EC50 (NCI-H1373 cells; Homo sapiens, NCI-H1373, 144 h): 81.7 nM
- IC50 (TIPARP GST-(TEV)): 6.95 nM
- PARP1/TIPARP IC50 Ratio (TIPARP GST-(TEV)): 306
- IC50 (PARP1 GST): 2130 nM
- EC50 (DLD-1 BRCA2 (−/−) cells; Homo sapiens, 144 h): 3000 nM

SMILES: C[C@H]1CN(c2ncc(C(C)(C)O)cn2)CCN1C(=O)[C@H]1C[C@@H](Cc2c[nH]c(=O)c(C(F)(F)F)c2)C1 [Example 21, 5-{[(1R,3s)-3-{(2S)-4-[5-(2-hydroxypropan-2-yl)pyrimidin-2-yl]-2-methylpiperazine-1-carbonyl}cyclobutyl]methyl}-3-(trifluoromethyl)pyridin-2(1H)-one]
- EC50 (DLD-1 parent cells; Homo sapiens, 144 h): > 30000 nM
- EC50 (NCI-H1373 cells; Homo sapiens, NCI-H1373, 144 h): 160 nM
- IC50 (TIPARP GST-(TEV)): 12.9 nM
- PARP1/TIPARP IC50 Ratio (TIPARP GST-(TEV)): 25.7
- IC50 (PARP1 GST): 331 nM
- EC50 (DLD-1 BRCA2 (−/−) cells; Homo sapiens, 144 h): 1060 nM

SMILES: C[C@@H]1CN(C(=O)[C@H]2C[C@@H](Cc3c[nH]c(=O)c(C(F)(F)F)c3)C2)C[C@H](C)N1c1ncc(C(C)(C)O)cn1 [Example 22, 5-{[(1s,3s)-3-{(3R,5S)-4-[5-(2-hydroxypropan-2-yl)pyrimidin-2-yl]-3,5-dimethylpiperazine-1-carbonyl}cyclobutyl]methyl}-3-(trifluoromethyl)pyridin-2(1H)-one]
- EC50 (DLD-1 parent cells; Homo sapiens, 144 h): > 30000 nM
- EC50 (NCI-H1373 cells; Homo sapiens, NCI-H1373, 144 h): 27 nM
- IC50 (TIPARP GST-(TEV)): 2.8 nM
- PARP1/TIPARP IC50 Ratio (TIPARP GST-(TEV)): 975
- IC50 (PARP1 GST): 2730 nM
- EC50 (DLD-1 BRCA2 (−/−) cells; Homo sapiens, 144 h): 9190 nM

SMILES: O=c1[nH]cc([C@H]2C[C@@H](C(=O)N3CCN(c4ncc(C(F)(F)F)cn4)CC3)C2)cc1C(F)(F)F [Example 23, 3-(trifluoromethyl)-5-[(1s,3s)-3-{4-[5-(trifluoromethyl)pyrimidin-2-yl]piperazine-1-carbonyl}cyclobutyl]pyridin-2(1H)-one]
- EC50 (DLD-1 parent cells): 13300 nM
- EC50 (NCI-H1373 cells): 44.2 nM
- IC50 (TIPARP GST-(TEV)): 2.74 nM
- PARP1/TIPARP IC50 Ratio (TIPARP GST-(TEV)): 49.6
- IC50 (PARP1 GST): 136 nM
- EC50 (DLD-1 BRCA2 (−/−) cells): 785 nM

SMILES: C[C@@H]1CN(C(=O)[C@H]2C[C@H](c3c[nH]c(=O)c(C(F)(F)F)c3)C2)C[C@H](C)N1c1ncc(C(F)(F)F)cn1 [Example 24, 5-[(1r,3r)-3-{(3R,5S)-3,5-dimethyl-4-[5-(trifluoromethyl)pyrimidin-2-yl]piperazine-1-carbonyl}cyclobutyl]-3-(trifluoromethyl)pyridin-2(1H)-one]
- EC50 (DLD-1 parent cells): > 30000 nM
- EC50 (NCI-H1373 cells): 6490 nM
- IC50 (TIPARP GST-(TEV)): 1870 nM
- PARP1/TIPARP IC50 Ratio (TIPARP GST-(TEV)): 1.65
- IC50 (PARP1 GST): 3080 nM
- EC50 (DLD-1 BRCA2 (−/−) cells): 23400 nM
